Experimental data from patent US20080226719A1, “Combination of Rosiglitazone and Donepezil for Improvement of Cognitive Function” (priority 2005, published 2008).

Tested on: Alzheimer's patients
Test: CIBIC+ in patients with mild to moderate AD, 24 week placebo-controlled study (Example 2)
Assay type: in vivo, human
Conditions: 24 weeks
Description: Analysis for the full intent to treat (ITT) population was performed on 511 subjects who were randomly allocated into one of four specific treatment regimes. Genotyping analysis was performed on 63% (323/511) of the ITT population.
Patient population included Caucasian males and females between 50-85 years of age who had been diagnosed with mild to moderate AD, were not receiving any medications which could adversely prejudice the study (e.g. PPAR-gamma agonists or conventional AD medicaments) or had any other potentially prejudicial ailments (e.g. diabetes or major psychiatric disorders).
Patients received either placebo or one of three dosage levels of extended release rosiglitazone provided once daily (2 mg, 4 mg and 8 mg tablets as described in Example 1). Patients were examined using the cognitive Alzheimer's Disease Assessment Scale (ADAS-cog; for further information see Rosen W G et al. Am. J. Psychiatry. 1984 141:1356-1364) and the Clinician's Interview-Based Impression of Change with caregiver information (CIBIC+; for further information see Knopman D S et al. Neurology 1994 44: 2315-2321); and secondary assessments were performed using: the Disability Assessment for Dementia (DAD, for further information see Gelinas L et al. Am J Occup Ther 1999 53: 471-81) and the Neuropsychiatric Inventory test (NPI, for further information see Cummings et al (1994) Neurology 44, 2308-2314) at the start of the study (baseline) and during the course of the study (after 8, 16 and 24 weeks of treatment).
APOE genotype was determined using the TaqMan PCR-based method of McLeod et al 2001 infra.
All statistics reflect last observed assessment carried forward (LOCF) measurements.
Higher CIBIC+ scores indicate a greater level of decline with scores below 4 denoting clinical improvement and scores above 4 denoting clinical decline.

[1] = Table 13, PGx ITT population, 0 APOE4 copies, 2 mg
[2] = Table 13, PGx ITT population, 0 APOE4 copies, 4 mg
[3] = Table 13, PGx ITT population, 0 APOE4 copies, 8 mg
[4] = Table 13, PGx ITT population, 1 APOE4 copy, 2 mg
[5] = Table 13, PGx ITT population, 1 APOE4 copy, 4 mg
[6] = Table 13, PGx ITT population, 1 APOE4 copy, 8 mg
[7] = Table 13, PGx ITT population, 2 APOE4 copies, 2 mg
[8] = Table 13, PGx ITT population, 2 APOE4 copies, 4 mg
[9] = Table 13, PGx ITT population, 2 APOE4 copies, 8 mg

CN(CCOc1ccc(CC2SC(=O)NC2=O)cc1)c1ccccn1 (stereo not drawn) [Rosi, 5-[4-[2-(N-methyl-N-(2-pyridyl)amino)ethoxy]benzyl]thiazolidine-2,4-dione]
CIBIC+ Treatment Difference (95% confidence limits) Rosi − Placebo (ITT population, LOCF, 4 mg): −0.16 (−0.43, 0.11)
CIBIC+ LSMean (SE) (ITT population, LOCF, 8 mg): 3.8 (0.10)
CIBIC+ Treatment Difference (95% confidence limits) Rosi − Placebo (ITT population, LOCF, 8 mg): −0.22 (−0.49, 0.05)
CIBIC+ Treatment Difference (90% confidence limits) Rosi − Placebo [1]: −0.49 (−0.89, −0.08)
model adjusted CIBIC+ LSMean (SE) [1]: 3.47 (0.18)
CIBIC+ Treatment Difference (90% confidence limits) Rosi − Placebo [2]: −0.19 (−0.60, 0.22)
model adjusted CIBIC+ LSMean (SE) [2]: 3.76 (0.18)
CIBIC+ Treatment Difference (90% confidence limits) Rosi − Placebo [3]: −0.19 (−0.61, 0.22)
model adjusted CIBIC+ LSMean (SE) [3]: 3.76 (0.18)
CIBIC+ Treatment Difference (90% confidence limits) Rosi − Placebo [4]: 0.59 (0.08, 1.11)
model adjusted CIBIC+ LSMean (SE) [4]: 4.47 (0.23)
CIBIC+ Treatment Difference (90% confidence limits) Rosi − Placebo [5]: 0.23 (−0.28, 0.74)
model adjusted CIBIC+ LSMean (SE) [5]: 4.11 (0.23)
CIBIC+ Treatment Difference (90% confidence limits) Rosi − Placebo [6]: −0.20 (−0.73, 0.34)
model adjusted CIBIC+ LSMean (SE) [6]: 3.68 (0.25)
CIBIC+ Treatment Difference (90% confidence limits) Rosi − Placebo [7]: −0.92 (−2.20, 0.37)
model adjusted CIBIC+ LSMean (SE) [7]: 3.42 (0.58)
CIBIC+ Treatment Difference (90% confidence limits) Rosi − Placebo [8]: −0.39 (−1.55, 0.77)
model adjusted CIBIC+ LSMean (SE) [8]: 3.95 (0.47)
CIBIC+ Treatment Difference (90% confidence limits) Rosi − Placebo [9]: −0.07 (−1.08, 0.95)
model adjusted CIBIC+ LSMean (SE) [9]: 4.27 (0.34)
model adjusted CIBIC+ LSMean (SE) (Table 13A updated analysis with additional subjects, 0 APOE4 copies, 2 mg): 3.51 (0.17)
model adjusted CIBIC+ LSMean (SE) (Table 13A updated analysis with additional subjects, 0 APOE4 copies, 4 mg): 3.75 (0.17)
model adjusted CIBIC+ LSMean (SE) (Table 13A updated analysis with additional subjects, 0 APOE4 copies, 8 mg): 3.75 (0.18)
model adjusted CIBIC+ LSMean (SE) (Table 13A updated analysis with additional subjects, 1 APOE4 copy, 2 mg): 4.32 (0.21)
model adjusted CIBIC+ LSMean (SE) (Table 13A updated analysis with additional subjects, 1 APOE4 copy, 4 mg): 3.97 (0.22)
model adjusted CIBIC+ LSMean (SE) (Table 13A updated analysis with additional subjects, 1 APOE4 copy, 8 mg): 3.70 (0.24)
model adjusted CIBIC+ LSMean (SE) (Table 13A updated analysis with additional subjects, 2 APOE4 copies, 2 mg): 3.46 (0.57)
model adjusted CIBIC+ LSMean (SE) (Table 13A updated analysis with additional subjects, 2 APOE4 copies, 4 mg): 3.93 (0.47)
model adjusted CIBIC+ LSMean (SE) (Table 13A updated analysis with additional subjects, 2 APOE4 copies, 8 mg): 4.29 (0.33)
CIBIC+ Treatment Difference (90% confidence limits) Rosi − Placebo (Table 13A updated analysis, 0 APOE4 copies, 2 mg): −0.46 (−0.85, −0.07)
CIBIC+ Treatment Difference (90% confidence limits) Rosi − Placebo (Table 13A updated analysis, 0 APOE4 copies, 4 mg): −0.22 (−0.62, 0.18)
CIBIC+ Treatment Difference (90% confidence limits) Rosi − Placebo (Table 13A updated analysis, 0 APOE4 copies, 8 mg): −0.22 (−0.62, 0.19)
CIBIC+ Treatment Difference (90% confidence limits) Rosi − Placebo (Table 13A updated analysis, 1 APOE4 copy, 2 mg): 0.39 (−0.09, 0.87)
CIBIC+ Treatment Difference (90% confidence limits) Rosi − Placebo (Table 13A updated analysis, 1 APOE4 copy, 4 mg): 0.04 (−0.44, 0.53)
CIBIC+ Treatment Difference (90% confidence limits) Rosi − Placebo (Table 13A updated analysis, 1 APOE4 copy, 8 mg): −0.22 (−0.74, 0.29)
CIBIC+ Treatment Difference (90% confidence limits) Rosi − Placebo (Table 13A updated analysis, 2 APOE4 copies, 2 mg): −0.91 (−2.19, 0.36)
CIBIC+ Treatment Difference (90% confidence limits) Rosi − Placebo (Table 13A updated analysis, 2 APOE4 copies, 4 mg): −0.45 (−1.59, 0.70)
CIBIC+ Treatment Difference (90% confidence limits) Rosi − Placebo (Table 13A updated analysis, 2 APOE4 copies, 8 mg): −0.09 (−1.09, 0.92)
